For one series, the system named is testes. Kind of series: testes weights of rats after 90 days of treatment. It is filed as in vivo, rat. The settings on record: vs control group GI. How it is done:
(§1) Statistical analyses were performed using SPSS software version 21.00. One-way analysis of variance (ANOVA), post-hoc and least significant difference (LSD) were performed for intergroup comparisons. P>0.05, P≤0.05, and P≤0.001 were considered non-significant, significant, and highly significant, respectively.

Series [1] in a line: plasma levels of testosterone of rats after 90 days of treatment. It is filed as in vivo, rat. Here is the method:
as §1

Series [2] can be described thus: body weights of rats after 90 days of treatment. It is filed as in vivo, rat. How it is done:
as §1

Another series deals with testis of the rats. The experiment in a line: histological examination of the rat testis (light microscopy, hematoxylin-eosin). The settings on record: 90 days.
The mark [3] stands for this setting: GV: risperidone high dose 2 mg/kg/day oral.

Protocol for testis of the rats: The experiments in the Examples were conducted on 30 male albino rats of the Wister strain with an age range of 40-45 days (approximately 6 weeks) and a weight range of 68-122 g. […] The rats were provided feed and water, and bred in a private room with a temperature of 24±2° C., a relative humidity of 55±5%, and a 12-hour light/12-hour dark cycle.
The first treatment group (GI) was a control treatment group composed of 5 rats that were given distilled water orally throughout the experiment.
The second treatment group (GII) was composed of 5 rats that were orally administered with only the root extract of Costus speciosus at a dose of 2 mg/kg body weight/day.
The third treatment group (GIII) was composed of 5 rats that were orally administered with risperidone at a low dose of 1 mg/kg body weight/day.
The fourth treatment group (GIV) was composed of 5 rats that were orally administered with both risperidone at the low dose of 1 mg/kg body weight/day and the root extract of Costus speciosus at 2 mg/kg body weight/day.
The fifth treatment group (GV) was composed of 5 rats that were orally administered with risperidone at a high dose of 2 mg/kg body weight/day.
The sixth treatment group (GVI) was composed of 5 rats that were orally administered with both the high dose of risperidone at 2 mg/kg body weight/day and the root extract of Costus speciosus at 2 mg/kg body weight/day. […]

As for `Cc1nc2n(c(=O)c1CCN1CCC(c3noc4cc(F)ccc34)CC1)CCCC2` [risperidone, Risperidone], the testes weight entry with testes (GIII: risperidone low dose 1 mg/kg/day oral) and in the series on testes (setting [3]) was “insignificant reduction in testes weight” throughout. For the same molecule, the “plasma level of testosterone” value was “insignificant reduction in the plasma level of testosterone” in series [1] (GIII: risperidone low dose 1 mg/kg/day oral, vs GIV (low dose + root extract)) and “insignificant reduction in the plasma level of testosterone” in series [1] (GV: risperidone high dose 2 mg/kg/day oral, vs GVI (high dose + root extract)). The body weight result in series [2] (GIII: risperidone low dose 1 mg/kg/day oral, vs GI or GII) was “significant increase in body weight”; in series [2] (GV: risperidone high dose 2 mg/kg/day oral, vs GIII (low dose risperidone)) it was “significant increase in body weight”. For the same molecule, the “histological findings in the testis” value in the series on testis of the rats (GIII: risperidone low dose 1 mg/kg/day oral, vs GI) was “abnormal, disorganized, and atrophied seminiferous tubules (ST), disorganization of germinal epithelium, a loss of spermatogenic cell types (pointed by arrows), and a massive and wide-spread destruction of germ cells”; in the series on testis of the rats (setting [3]), “degeneration of the germinal epithelium lining (arrowheads), vacuolation of seminiferous tubules (ST) (*), and intertubular oedema”.

For the origin of these results see patent publication US10383910B2, “Methods of increasing fertility of a male subject with costus speciosus extract” (priority 2016, dated 2019).
